Patent US7776924B2, “Nitroaniline-based alkylating agents and their use as prodrugs” (Auckland Uniservices Limited, priority 2002, dated 2010)
pIC50: −log10 of the molar value. Marks after values point to notes of the source that are not given here.

Key:
Assay type in all cases: cell-based
SKOV3 = experiment: Cytotoxicity in wild-type (NR−) human ovarian cell line SKOV3
WIDR = experiment: Cytotoxicity in wild-type (NR−) human colon cell line WIDR
SC3.2 = experiment: Cytotoxicity in NTR-transfected (NR+) human ovarian cell line SC3.2; conditions: for pIC50: SC3.2 NTR-transfected, 18 h exposure; for Ratio = IC50(NR−)/IC50(NR+) Human Ovarian: SKOV3 / SC3.2, 18 h exposure
WC14.10 = experiment: Cytotoxicity in NTR-transfected (NR+) human colon cell line WC14.10; conditions: for pIC50: WC14.10 NTR-transfected
[1] = test system: A549 human lung carcinoma cells; experiment: Cytotoxicity in oxic and anoxic wild-type A549 human lung carcinoma cells; conditions: 4 h exposure; for pIC50: anoxic, read-out: IC50 WT anoxic
[2] = test system: A549 transfected with human cytochrome P450 reductase (P450R); experiment: Cytotoxicity in oxic and anoxic A549 cells transfected with human cytochrome P450 reductase; conditions: 4 h exposure; for pIC50: anoxic
[3] = Homo sapiens, SK-OV-3, 18 h exposure

| Structure (SMILES) | pIC50 (SKOV3; 18 h exposure) | pIC50 (WIDR; 18 h exposure) | pIC50 (SC3.2) | Ratio = IC50(NR−)/IC50(NR+) Human Ovarian (SC3.2) | pIC50 (WC14.10; 18 h exposure) | Ratio = IC50(NR−)/IC50(NR+) Human colon (WC14.10; WIDR / WC14.10, 18 h exposure) | WT Ratio = IC50(aerobic)/IC50(anoxic) [1] | pIC50 [1] | P450R ratio = IC50(aerobic)/IC50(anoxic) [2] | pIC50 [2] | pIC50 (WIDR; 4 h exposure) | pIC50 (WC14.10; 4 h exposure) | Ratio = IC50(NR−)/IC50(NR+) Human colon (WC14.10; WIDR / WC14.10, 4 h exposure) | pIC50 (SKOV3; [3]) | pIC50 (WIDR; Homo sapiens, 18 h exposure) | pIC50 (SC3.2; Homo sapiens) | pIC50 (WC14.10; Homo sapiens, 18 h exposure) |
| --- | --- | --- | --- | --- | --- | --- | --- | --- | --- | --- | --- | --- | --- | --- | --- | --- | --- |
| CS(=O)(=O)OCCN(CCBr)c1c(C(=O)NCCO)cc([N+](=O)[O-])cc1[N+](=O)[O-] [IIb3, 2-((2-Bromoethyl)-2-{[(2-hydroxyethyl)amino]carbonyl}-4,6-dinitroanilino)ethyl methanesulfonate] | 5.28 | 5.43 | 7.40 | 142 | 7.22 | 66 | 26 | 5.64 | 133 | 6.55 | – | – | – | – | – | – | – |
| CS(=O)(=O)OCCN(CCCl)c1ccc([N+](=O)[O-])c(C(=O)NCC(O)CO)c1[N+](=O)[O-] (stereo not shown) [IIc7, 2-((2-Chloroethyl)-3-{[(2,3-dihydroxypropyl)amino]carbonyl}-2,4-dinitroanilino)ethyl methanesulfonate] | 2.77 | 3.07 | 5.18 | 267 | 5.37 | 262 | – | – | – | – | – | – | – | – | – | – | – |
| CS(=O)(=O)OCCN(CCBr)c1cc(C(=O)NCC(O)CO)c([N+](=O)[O-])cc1[N+](=O)[O-] (stereo not shown) [IIa7, 2-((2-Bromoethyl)-5-{[(2,3-dihydroxypropyl)amino]carbonyl}-2,4-dinitroanilino)ethyl methanesulfonate] | 2.95 | 3.09 | 5.76 | – | 5.52 | 268 | – | – | – | – | – | – | – | – | – | – | – |
| CS(=O)(=O)OCCN(CCI)c1c(C(=O)NCCO)cc([N+](=O)[O-])cc1[N+](=O)[O-] [IIb4, 2-((2-Iodoethyl)-2-{[(2-hydroxyethyl)amino]carbonyl}-4,6-dinitroanilino)ethyl methanesulfonate] | – | – | – | – | – | – | 7 | 5.35 | 95 | 6.35 | 5.05 | 6.54 | 31^f | – | – | – | – |
| CS(=O)(=O)OCCN(CCCl)c1c(C(N)=O)cc([N+](=O)[O-])cc1[N+](=O)[O-] [IIb1, 2-[2-(Aminocarbonyl)(2-chloroethyl)-4,6-dinitroanilino]ethyl methanesulfonate] | 4.10 | 4.70 | 7.40 | 1890 | 7.15 | 303 | – | – | – | – | – | – | – | – | – | – | – |
| CS(=O)(=O)OCCN(CCBr)c1c([N+](=O)[O-])ccc(C(=O)NCCCCO)c1[N+](=O)[O-] [IIc6, 2-((2-Bromoethyl)-3-{[(4-hydroxybutyl)amino]carbonyl}-2,6-dinitroanilino)ethyl methanesulfonate] | – | – | – | – | – | – | – | – | – | – | 3.50 | 4.70 | 16^f | – | – | – | – |
| CS(=O)(=O)OCCN(CCBr)c1cc(C(=O)NCCCO)c([N+](=O)[O-])cc1[N+](=O)[O-] [IIa6, 2-((2-Bromoethyl)5-{[(3-hydroxypropyl)amino]carbonyl}-2,4-dinitroanilino)ethyl methanesulfonate] | – | 3.34 | – | – | 5.30 | 91 | 2.4 | 3.46 | 18 | 4.51 | – | – | – | – | – | – | – |
| CS(=O)(=O)OCCN(CCBr)c1c([N+](=O)[O-])ccc(C(N)=O)c1[N+](=O)[O-] [IIc2, 2-[3-(Aminocarbonyl)(2-bromoethyl)-2,6-dinitroanilino]ethyl methanesulfonate] | 3.82 | 4.07 | 6.68 | 724 | 6.51 | 271 | – | – | – | – | – | – | – | – | – | – | – |
| CC(O)CNC(=O)c1cc([N+](=O)[O-])cc([N+](=O)[O-])c1N(CCBr)CCOS(C)(=O)=O (stereo not shown) [IIb5, 2-((2-Bromoethyl)-2-{[(2-hydroxypropyl)amino]carbonyl}-4,6-dinitroanilino)ethyl methanesulfonate] | – | – | – | – | – | – | 19 | 5.40 | 150 | 6.47 | 5.54 | 6.60 | 12^f | – | – | – | – |
| CS(=O)(=O)OCCN(CCBr)c1c(C(N)=O)cc([N+](=O)[O-])cc1[N+](=O)[O-] [IIb2, 2-[2-(Aminocarbonyl)(2-bromoethyl)-4,6-dinitroanilino]ethyl methanesulfonate] | 5.22 | 5.37 | 8.15 | 762 | 7.70 | 227 | – | – | – | – | – | – | – | – | – | – | – |
| CS(=O)(=O)OCCN(CCBr)c1cc(C(N)=O)c([N+](=O)[O-])cc1[N+](=O)[O-] [IIa3, 2-[5-(Aminocarbonyl)(2-bromoethyl)-2,4-dinitroanilino]ethyl methanesulfonate] | 3.87 | 4.10 | 6.72 | 715 | 6.66 | 387 | – | – | – | – | – | – | – | – | – | – | – |
| CS(=O)(=O)OCCN(CCBr)c1c([N+](=O)[O-])ccc(C(=O)NCCO)c1[N+](=O)[O-] [IIc3, 2-((2-Bromoethyl)-3-{[(2-hydroxyethyl)amino]carbonyl}-2,6-dinitroanilino)ethyl methanesulfonate] | – | – | – | – | – | – | 20 | 4.55 | 146 | 5.54 | 3.37 | 5.29 | 83^f | – | – | – | – |
| CS(=O)(=O)OCCN(CCBr)c1c(C(=O)NCCCN2CCOCC2)cc([N+](=O)[O-])cc1[N+](=O)[O-] [IIb7, 2-[(2-Bromoethyl)-2-({[3-(4-morpholinyl)propyl]amino}carbonyl)-4,6-dinitroanilino]ethyl methanesulfonate] | 5.51 | 6.05 | 7.52 | 102 | 7.30 | 22 | – | – | – | – | – | – | – | – | – | – | – |
| NC(=O)c1cc(N(CCCl)CCBr)c([N+](=O)[O-])cc1[N+](=O)[O-] [IIa2, 5-[(2-Bromoethyl)(2-chloroethyl)amino]-2,4-dinitrobenzamide] | – | – | – | 280 | – | 235 | – | – | – | – | – | – | – | 3.65 | 3.82 | 6.08 | 6.16 |
| CS(=O)(=O)OCCN(CCCl)c1ccc([N+](=O)[O-])c(C(=O)NCCCN2CCOCC2)c1[N+](=O)[O-] [IIc9, 2-[(2-Chloroethyl)-3-({[3-(4-morpholinyl)propyl]amino}carbonyl)-2,4-dinitroanilino]ethyl methanesulfonate] | 3.36 | 3.58 | 4.49 | 14 | 4.51 | 8.3 | – | – | – | – | – | – | – | – | – | – | – |
| CS(=O)(=O)OCCN(CCBr)c1ccc([N+](=O)[O-])c(C(=O)NCC(O)CO)c1[N+](=O)[O-] (stereo not shown) [IIc8, 2-((2-Bromoethyl)-3-{[(2,3-dihydroxypropyl)amino]carbonyl}-2,4-dinitroanilino)ethyl methanesulfonate] | 3.05 | 3.67 | 5.74 | 509 | 5.82 | 141 | – | – | – | – | – | – | – | – | – | – | – |
| CS(=O)(=O)OCCN(CCI)c1cc(C(N)=O)c([N+](=O)[O-])cc1[N+](=O)[O-] [IIa4, 2-[5-(Aminocarbonyl)(2-iodoethyl)-2,4-dinitroanilino]ethyl methanesulfonate] | 4.01 | 4.15 | 6.48 | 311 | 6.39 | 172 | – | – | – | – | – | – | – | – | – | – | – |
| CS(=O)(=O)OCCN(CCCl)c1ccc([N+](=O)[O-])c(C(N)=O)c1[N+](=O)[O-] [IIc1, 2-[3-(Aminocarbonyl)(2-chloroethyl)-2,4-dinitroanilino]ethyl methanesulfonate] | 3.71 | 3.92 | 6.26 | 390 | 6.00 | 120 | – | – | – | – | – | – | – | – | – | – | – |
| COC(=O)CCNC(=O)c1cc([N+](=O)[O-])cc([N+](=O)[O-])c1N(CCBr)CCOS(C)(=O)=O [IIb9, Methyl 3-{[2-((2-bromoethyl){2-[(methylsulfonyl)oxy]ethyl}amino)-3,5-dinitrobenzoyl]amino}propanoate] | – | – | – | 25 | – | 6.3 | – | – | – | – | – | – | – | 5.43 | 5.84 | 6.82 | 6.62 |
| CS(=O)(=O)OCCN(CCBr)c1ccc([N+](=O)[O-])c(C(=O)NCCCN2CCOCC2)c1[N+](=O)[O-] [IIc10, 2-[(2-Bromoethyl)-3-({[3-(4-morpholinyl)propyl]amino}carbonyl)-2,4-dinitroanilino]ethyl methanesulfonate] | 3.81 | 4.03 | 4.96 | 14 | 4.96 | 8.2 | – | – | – | – | – | – | – | – | – | – | – |
| CS(=O)(=O)OCCN(CCBr)c1c(C(=O)NCC(O)CO)cc([N+](=O)[O-])cc1[N+](=O)[O-] (stereo not shown) [IIb6, 2-((2-Bromoethyl)-2-{[(2,3-dihydroxypropyl)amino]carbonyl}-4,6-dinitroanilino)ethyl methanesulfonate] | 4.59 | 4.96 | 6.72 | 140 | 6.68 | 52 | – | – | – | – | – | – | – | – | – | – | – |
